From BigSolDB 2.1

O=C1C=CC(=O)N1c1cc(F)c(Br)c(F)c1
Settings	solubility (mole fraction)
in THF, 285 K	0.0148
in THF, 288.45 K	0.0162
in THF, 291.55 K	0.0176
in THF, 294.25 K	0.0185
in THF, 297.55 K	0.02
in THF, 302.8 K	0.0228
in THF, 306.65 K	0.0249
in THF, 310.8 K	0.0275
in THF, 315 K	0.0303
in THF, 318.45 K	0.0329
in THF, 321.45 K	0.0355
in THF, 324.65 K	0.0383
in THF, 327.65 K	0.0409
in THF, 330.35 K	0.0437
in THF, 333.65 K	0.047
in THF, 336.25 K	0.0497
in acetone, 287.65 K	0.0071
in acetone, 291.85 K	0.0081
in acetone, 295.55 K	0.0092
in acetone, 298.35 K	0.01
in acetone, 301.25 K	0.0109
in acetone, 304.55 K	0.012
in acetone, 307.6 K	0.0131
in acetone, 309.45 K	0.0139
in acetone, 311.95 K	0.0152
in acetone, 313.95 K	0.0159
in acetone, 316.55 K	0.0174
in acetone, 319.55 K	0.019
in acetone, 321.45 K	0.0202
in acetone, 323.35 K	0.0214
in acetone, 325.15 K	0.0225
in acetonitrile, 291.95 K	0.0028
in acetonitrile, 296.65 K	0.0033
in acetonitrile, 299.25 K	0.0037
in acetonitrile, 302.45 K	0.004
in acetonitrile, 304.85 K	0.0044
in acetonitrile, 307.15 K	0.0049
in acetonitrile, 311.55 K	0.0057
in acetonitrile, 316.95 K	0.007
in acetonitrile, 320.15 K	0.0078
in acetonitrile, 325.45 K	0.0095
in acetonitrile, 328.55 K	0.0107
in acetonitrile, 332.05 K	0.0119
in acetonitrile, 338.65 K	0.0146
in acetonitrile, 341.65 K	0.0165
in acetonitrile, 347.25 K	0.0198
in acetonitrile, 350.15 K	0.0217
in chloroform, 289.25 K	0.0055
in chloroform, 294.85 K	0.0066
in chloroform, 296.65 K	0.0069
in chloroform, 300.85 K	0.0078
in chloroform, 302.75 K	0.0082
in chloroform, 305.65 K	0.0092
in chloroform, 307.45 K	0.0096
in chloroform, 309.55 K	0.0101
in chloroform, 311.65 K	0.0108
in chloroform, 315.35 K	0.012
in chloroform, 318.65 K	0.0132
in chloroform, 322.15 K	0.0146
in chloroform, 324.65 K	0.0157
in chloroform, 326.45 K	0.0166
in chloroform, 328.35 K	0.0176
in chloroform, 330.65 K	0.0188
in ethanol, 288.65 K	0.0003
in ethanol, 293.59 K	0.0003
in ethanol, 299.85 K	0.0004
in ethanol, 305.72 K	0.0006
in ethanol, 311.15 K	0.0008
in ethanol, 318.15 K	0.0011
in ethanol, 324.35 K	0.0014
in ethanol, 327.85 K	0.0016
in ethanol, 332.95 K	0.002
in ethanol, 336.05 K	0.0023
in ethanol, 339.65 K	0.0027
in ethanol, 341.85 K	0.003
in ethanol, 344.15 K	0.0033
in ethanol, 346.15 K	0.0036
in ethanol, 347.75 K	0.0039
in pyridine, 285.55 K	0.0116
in pyridine, 289.66 K	0.0129
in pyridine, 293.95 K	0.0144
in pyridine, 297.15 K	0.0154
in pyridine, 300.85 K	0.0169
in pyridine, 304.65 K	0.0186
in pyridine, 310.05 K	0.0214
in pyridine, 315.65 K	0.0246
in pyridine, 318.65 K	0.0265
in pyridine, 322.55 K	0.0291
in pyridine, 328.45 K	0.0341
in pyridine, 334.15 K	0.0394
in pyridine, 337.95 K	0.0432
in pyridine, 340.65 K	0.0462
in pyridine, 344.85 K	0.0514
in pyridine, 346.35 K	0.0533
